{"source": "patent US20050182128A1", "about": "“Use of anethole dithiolethione in lung cancer chemoprevention” (priority 2002, published 2005)", "key": {"[1]": {"system": "glutathione-S-transferase (GST)", "conditions": "rat model of hepatoma; p<0.01; cited from earlier work"}, "bronchial dysplasia": {"system": "bronchial dysplasia", "experiment": "Phase IIb trial: nuclear morphometry index (MI) of bronchial biopsies", "type": "in vivo, human", "excerpt": "The primary outcome of the study was changes in the histopathology grade of the bronchial biopsies before and after six months of intervention. The secondary endpoint was changes in the nuclear morphometry index of the bronchial biopsies.\nThe method of quantitative nuclear morphometry had been described in detail previously (Lam et al., 1998; Doudkine et al., 1995; Garner et al., 1994). […] Morphometric measurements provide a more objective and reproducible means for the grading of bronchial biopsies than subjective assessment does. The device used to make these high-resolution quantitative morphometric measurements was a Cyto-Savant™ system (Lam et al., 1998; Doudkine et al., 1995; Garner et al., 1994). The images were interactively collected by an experienced cytotechnologist under the direction of a pathologist (JCL). The images were collected using a 20x objective with a numerical aperture of 0.75. Analysis of the nuclei in each tissue consisted of five steps 1) focusing the field of view, 2) automatically segmenting the nuclei in the field, 3) interactively correcting segmentation errors, 4) selecting and classifying the cell nuclei into the categories of basal, intermediate or superficial cells depending or their location within the biopsy where possible, and 5) automatically collecting individually focused images of each selected cell. Additionally, approximately 30 leukocytes were collected to normalize the images for sample to sample variations in staining intensity. On the average, greater than 100 cell nuclei were collected in this fashion for each of the biopsies. Using bulk nuclear features such as the total area and the total amount of light absorbed (which corresponds to the amount of DNA), shape features and descriptions of the distribution of stained DNA (texture features) (Doudkine et al., 1995), a scale was defined with normal nuclei defining one end and cancer-like nuclei defining the other. From the proportion of nuclei along this scale, a Morphometry Index (MI) was derived for each biopsy (Lam et al., 1998).\nFor quantitative nuclear morphometry, the median MI for histologically normal biopsies was 1.25. The inter-observer variation of measuring the MI was such that a change in MI greater than 0.11 (>2SD) was taken to be a significant change. For the lesion specific analysis, CR was defined as regression of a lesion with a MI of >1.36 to ≦1.36. PD was defined as increase in the MI from ≦1.36 to >1.36. On a participant by participant basis, CR was defined as regression of all sites with MI>1.36 to ≦1.36. PD was defined as progression of any site similar to that defined under the site by site analysis or appearance of new lesions with a MI of >1.36.\nDescriptive statistics were used to summarize subject characteristics, and pathologic evaluations of the bronchial biopsy examinations. Comparison between treatment arms was done with the Mann-Whitney test for continuous variables such as age, smoking intensity (pack-years) and MI. Pearson's χ^2 test with continuity correction was used to compare categorical variables such as gender, smoking status (current versus former smokers) and response rates (progression and regression) in the two arms. Fisher's exact test was applied to the lower partial response and stable disease rates. All P values are two-sided. A two-sided P value of less than 0.05 was considered statistically significant."}}}
{"smiles": "COc1ccc(-c2cc(=S)ss2)cc1", "note": "[ADT, 5-(p-methoxyphenyl)-1,2-dithiole-3-thione]", "values": [{"measurement": "Mean GST levels in the liver", "setting": "[1]", "result": "statistically increased"}, {"measurement": "PR rate, subject specific analysis, nuclear morphometry", "setting": "bronchial dysplasia; 6 months", "result": 3, "unit": "%"}, {"measurement": "Biopsies with MI >1.36 at 6 months", "setting": "bronchial dysplasia; baseline MI >1.36, of 38", "result": 9}, {"measurement": "Biopsies with MI ≦1.36 at 6 months", "setting": "bronchial dysplasia; baseline MI >1.36, of 38", "result": 29}, {"measurement": "CR rate, lesion specific analysis, nuclear morphometry", "setting": "bronchial dysplasia; baseline MI >1.36 to ≦1.36 at 6 months, placebo 63%, P=0.37", "result": 76, "unit": "%"}, {"measurement": "Biopsies with MI >1.36 at 6 months", "setting": "bronchial dysplasia; baseline MI ≦1.36, of 112", "result": 27}, {"measurement": "Biopsies with MI ≦1.36 at 6 months", "setting": "bronchial dysplasia; baseline MI ≦1.36, of 112", "result": 85}, {"measurement": "PD rate, lesion specific analysis, nuclear morphometry", "setting": "bronchial dysplasia; baseline MI ≦1.36 to >1.36 at 6 months, placebo 33%, P=0.22", "result": 24, "unit": "%"}, {"measurement": "CR, number of subjects, nuclear morphometry", "setting": "bronchial dysplasia; of 29", "result": 13}, {"measurement": "PD, number of subjects, nuclear morphometry", "setting": "bronchial dysplasia; of 29", "result": 12}, {"measurement": "PR, number of subjects, nuclear morphometry", "setting": "bronchial dysplasia; of 29", "result": 1}, {"measurement": "PD rate, person specific analysis, nuclear morphometry", "setting": "bronchial dysplasia; participants with MI>1.36 pre-treatment, placebo 60%, P=0.28", "result": 41, "unit": "%"}, {"measurement": "PD rate lower than placebo, nuclear morphometry", "setting": "bronchial dysplasia; person specific, 41% versus 60%", "result": 19, "unit": "%"}, {"measurement": "CR rate higher than placebo, nuclear morphometry", "setting": "bronchial dysplasia; person specific, 45% versus 24%", "result": 21, "unit": "%"}, {"measurement": "CR rate, person specific analysis, nuclear morphometry", "setting": "bronchial dysplasia; placebo 24%, p=0.19", "result": 45, "unit": "%"}, {"measurement": "Biopsies with MI >1.36 at 6 months", "setting": "bronchial dysplasia; total, of 150", "result": 36}, {"measurement": "Biopsies with MI ≦1.36 at 6 months", "setting": "bronchial dysplasia; total, of 150", "result": 114}]}
